{
  "source": "paper PMC8155022",
  "about": "(Scientific Reports, 2021)",
  "key": {"CHK1(h)": {"biological_target": "T1, CHK1(h) (Homo sapiens, UniProt O14757)", "T1 construct": "purchased Cerep (receptors, ion channels, transporters); Eurofins Panlabs (kinases)", "T1 sequence (O14757 whole entry)": "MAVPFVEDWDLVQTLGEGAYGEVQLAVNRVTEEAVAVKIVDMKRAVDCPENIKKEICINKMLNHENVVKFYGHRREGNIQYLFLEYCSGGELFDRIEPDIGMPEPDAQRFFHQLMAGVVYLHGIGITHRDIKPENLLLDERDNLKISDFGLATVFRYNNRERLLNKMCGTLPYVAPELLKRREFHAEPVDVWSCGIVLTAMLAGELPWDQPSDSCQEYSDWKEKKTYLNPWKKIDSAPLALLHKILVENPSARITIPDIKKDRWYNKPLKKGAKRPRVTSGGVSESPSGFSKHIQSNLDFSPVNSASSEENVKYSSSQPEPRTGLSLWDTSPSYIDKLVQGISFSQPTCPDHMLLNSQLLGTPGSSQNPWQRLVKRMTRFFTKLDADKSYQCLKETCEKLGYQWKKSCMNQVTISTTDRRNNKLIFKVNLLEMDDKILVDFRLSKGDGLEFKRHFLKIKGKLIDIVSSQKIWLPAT", "test": "Kinase panel", "type": "biochemical", "method": "(§1) Kinase selectivity was conducted by Eurofins Panlabs Inc (St Charles, MO)."}, "FXR": {"biological_target": "T2, FXR (Homo sapiens, UniProt Q96RI1)", "T2 construct": "expressed in transfected cells", "T2 sequence (Q96RI1 whole entry, the tested form may be a part)": "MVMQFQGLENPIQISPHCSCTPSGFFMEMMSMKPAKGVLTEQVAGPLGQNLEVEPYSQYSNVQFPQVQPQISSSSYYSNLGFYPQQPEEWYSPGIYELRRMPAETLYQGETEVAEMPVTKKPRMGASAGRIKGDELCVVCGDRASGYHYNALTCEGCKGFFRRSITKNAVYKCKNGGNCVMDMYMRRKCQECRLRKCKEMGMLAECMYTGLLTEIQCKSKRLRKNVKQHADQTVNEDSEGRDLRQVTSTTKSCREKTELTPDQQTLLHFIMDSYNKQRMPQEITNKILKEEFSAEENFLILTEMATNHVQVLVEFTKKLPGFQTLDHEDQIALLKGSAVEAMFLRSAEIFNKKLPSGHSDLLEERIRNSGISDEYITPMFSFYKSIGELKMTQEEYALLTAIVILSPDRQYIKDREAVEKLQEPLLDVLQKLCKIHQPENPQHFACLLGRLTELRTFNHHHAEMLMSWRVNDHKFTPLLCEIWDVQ", "test": "nuclear receptor cellular GAL4 reporter assay", "type": "cell-based", "details": "agonist and antagonist mode; read-out: potency in agonist and antagonist mode"}, "VDR": {"biological_target": "T3, VDR (Homo sapiens, UniProt P11473)", "T3 construct": "expressed in transfected cells", "T3 sequence (P11473 whole entry, the tested form may be a part)": "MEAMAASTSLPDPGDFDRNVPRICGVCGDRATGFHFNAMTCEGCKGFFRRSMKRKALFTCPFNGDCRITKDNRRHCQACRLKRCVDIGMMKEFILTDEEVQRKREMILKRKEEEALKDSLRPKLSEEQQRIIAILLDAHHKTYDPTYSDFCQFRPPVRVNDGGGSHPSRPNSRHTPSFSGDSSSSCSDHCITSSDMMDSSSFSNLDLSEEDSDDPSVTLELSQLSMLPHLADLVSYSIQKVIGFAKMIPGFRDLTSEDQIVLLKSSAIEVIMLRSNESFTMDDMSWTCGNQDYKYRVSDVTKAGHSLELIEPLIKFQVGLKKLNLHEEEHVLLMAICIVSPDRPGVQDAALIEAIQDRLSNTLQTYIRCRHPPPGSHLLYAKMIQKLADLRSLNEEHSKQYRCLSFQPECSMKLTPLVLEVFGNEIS", "test": "nuclear receptor cellular GAL4 reporter assay", "type": "cell-based", "details": "agonist and antagonist mode; read-out: potency in agonist and antagonist mode"}, "5-HT6 (h)": {"biological_target": "T4, 5-HT6 (h) (Homo sapiens, UniProt P50406)", "T4 construct": "purchased Cerep (receptors, ion channels, transporters); Eurofins Panlabs (kinases)", "T4 sequence (P50406 whole entry)": "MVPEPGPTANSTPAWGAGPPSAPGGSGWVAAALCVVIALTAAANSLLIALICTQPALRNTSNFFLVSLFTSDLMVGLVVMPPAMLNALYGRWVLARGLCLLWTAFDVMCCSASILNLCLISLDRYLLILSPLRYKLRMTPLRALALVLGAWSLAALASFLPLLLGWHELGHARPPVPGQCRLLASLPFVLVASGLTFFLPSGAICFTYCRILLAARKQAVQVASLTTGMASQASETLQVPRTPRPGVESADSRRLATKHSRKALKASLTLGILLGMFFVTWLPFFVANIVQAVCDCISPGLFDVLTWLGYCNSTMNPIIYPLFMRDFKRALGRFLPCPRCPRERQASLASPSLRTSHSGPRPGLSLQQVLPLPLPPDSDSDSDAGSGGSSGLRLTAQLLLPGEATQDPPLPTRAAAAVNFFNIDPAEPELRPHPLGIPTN", "test": "Cerep panel", "type": "binding", "method": "(§2) A panel of 52 different receptors, ion channels and transporters was tested by Cerep, Inc. (Redmond, WA)."}, "PKA(h)": {"biological_target": "T5, PKA(h) (Homo sapiens, UniProt P17612)", "T5 construct": "purchased Cerep (receptors, ion channels, transporters); Eurofins Panlabs (kinases)", "test": "Kinase panel", "type": "biochemical", "method": "as §1"}, "PKBα(h)": {"biological_target": "T6, PKBα(h) (Homo sapiens, UniProt P31749)", "T6 construct": "purchased Cerep (receptors, ion channels, transporters); Eurofins Panlabs (kinases)", "T6 sequence (P31749 whole entry)": "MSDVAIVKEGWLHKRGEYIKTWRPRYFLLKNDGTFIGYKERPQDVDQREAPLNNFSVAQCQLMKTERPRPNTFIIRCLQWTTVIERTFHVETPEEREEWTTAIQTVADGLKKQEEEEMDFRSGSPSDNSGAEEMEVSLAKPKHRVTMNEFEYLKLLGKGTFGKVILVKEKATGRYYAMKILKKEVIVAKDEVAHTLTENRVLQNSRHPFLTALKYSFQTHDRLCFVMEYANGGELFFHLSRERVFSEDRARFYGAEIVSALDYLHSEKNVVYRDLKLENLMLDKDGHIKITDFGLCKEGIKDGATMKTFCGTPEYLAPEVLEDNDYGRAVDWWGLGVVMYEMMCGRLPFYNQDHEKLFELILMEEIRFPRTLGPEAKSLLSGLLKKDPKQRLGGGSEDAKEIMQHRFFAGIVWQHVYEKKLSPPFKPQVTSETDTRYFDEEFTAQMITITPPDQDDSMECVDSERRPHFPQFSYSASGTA", "test": "Kinase panel", "type": "biochemical", "method": "as §1"}, "M2": {"biological_target": "M2 (Homo sapiens, UniProt P08172)", "sequence (P08172 whole entry)": "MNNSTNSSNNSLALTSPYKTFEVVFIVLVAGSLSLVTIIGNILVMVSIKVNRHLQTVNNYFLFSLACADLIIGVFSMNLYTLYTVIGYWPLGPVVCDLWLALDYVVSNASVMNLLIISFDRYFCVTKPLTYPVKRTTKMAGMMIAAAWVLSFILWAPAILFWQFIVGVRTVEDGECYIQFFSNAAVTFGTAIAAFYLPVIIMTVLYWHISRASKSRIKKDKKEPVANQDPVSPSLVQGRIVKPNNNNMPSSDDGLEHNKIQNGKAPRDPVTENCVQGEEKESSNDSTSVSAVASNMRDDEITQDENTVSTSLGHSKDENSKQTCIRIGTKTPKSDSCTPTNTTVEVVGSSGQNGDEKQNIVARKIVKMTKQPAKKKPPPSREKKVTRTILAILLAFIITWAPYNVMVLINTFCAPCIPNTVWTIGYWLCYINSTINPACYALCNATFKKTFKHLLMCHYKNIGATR", "test": "GPCR panel, cAMP or calcium FLIPR assays", "type": "cell-based", "method": "28 GPCRs were evaluated through cAMP or calcium FLIPR assays[67]."}, "CCKA (h) (CCK1)": {"biological_target": "T7, CCKA (h) (CCK1) (Homo sapiens, UniProt P32238)", "T7 construct": "purchased Cerep (receptors, ion channels, transporters); Eurofins Panlabs (kinases)", "T7 sequence (P32238 whole entry)": "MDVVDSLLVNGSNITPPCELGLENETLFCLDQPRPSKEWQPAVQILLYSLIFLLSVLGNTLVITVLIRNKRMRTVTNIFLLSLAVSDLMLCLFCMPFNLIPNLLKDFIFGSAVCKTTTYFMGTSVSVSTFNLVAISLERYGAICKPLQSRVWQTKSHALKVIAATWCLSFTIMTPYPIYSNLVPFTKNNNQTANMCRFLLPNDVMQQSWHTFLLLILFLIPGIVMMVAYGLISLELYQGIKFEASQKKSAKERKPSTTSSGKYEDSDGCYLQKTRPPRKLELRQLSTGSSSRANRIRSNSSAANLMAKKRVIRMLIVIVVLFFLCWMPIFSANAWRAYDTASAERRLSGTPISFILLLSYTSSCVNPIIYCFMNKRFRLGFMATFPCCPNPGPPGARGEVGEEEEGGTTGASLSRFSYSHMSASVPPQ", "test": "Cerep panel", "type": "binding", "method": "as §2"}},
  "data": [
    {"smiles": "CC1CCCN1C(=O)c1nc(C(=O)NCC(C)(C)O)sc1-c1ccc(C(O)(C(F)(F)F)C(F)(F)F)c(Cl)c1Cl", "note": "(centres unmarked) [JNJ-61803534]", "values": [
      {"measurement": "activity at 1 µM", "setting": "CHK1(h)", "result": 97, "unit": "%"},
      {"measurement": "activity at 10 µM", "setting": "CHK1(h)", "result": 132, "unit": "%"},
      {"measurement": "IC50", "setting": "FXR", "result": "> 1.5", "unit": "µM"},
      {"measurement": "IC50", "setting": "VDR", "result": "> 1.5", "unit": "µM"},
      {"measurement": "inhibition at 1 µM", "setting": "5-HT6 (h)", "result": "< 10", "unit": "%"},
      {"measurement": "inhibition at 10 µM", "setting": "5-HT6 (h)", "result": "< 10", "unit": "%"},
      {"measurement": "activity at 1 µM", "setting": "PKA(h)", "result": 85, "unit": "%"},
      {"measurement": "activity at 10 µM", "setting": "PKA(h)", "result": 88, "unit": "%"},
      {"measurement": "activity at 1 µM", "setting": "PKBα(h)", "result": 97, "unit": "%"},
      {"measurement": "activity at 10 µM", "setting": "PKBα(h)", "result": 95, "unit": "%"},
      {"measurement": "EC50", "setting": "M2; agonist", "result": "> 12.5", "unit": "µM"},
      {"measurement": "IC50", "setting": "M2; antagonist", "result": "> 12.5", "unit": "µM"},
      {"measurement": "inhibition at 1 µM", "setting": "CCKA (h) (CCK1)", "result": "< 10", "unit": "%"},
      {"measurement": "inhibition at 10 µM", "setting": "CCKA (h) (CCK1)", "result": "< 10", "unit": "%"}
    ]}
  ]
}
